Test [1] has as its system HDAC activity in primary mouse cortical cultures. The experiment in a line: Whole-Cell Histone Deacetylase (HDAC) Inhibition Assay in Primary Mouse Cortical Cultures. It is filed as cell-based. The following applies: whole-cell (WC), mouse cortical neurons, read-out: HDAC Inhibition (IC50 μM) WC mouse cortical neurons. The protocol:
Primary neocortical cultures are established through the dissection of the neocortex from E17 embryos harvested from time-pregnant Balb/C mice. Following dissection, the neocortical tissue specimens undergo digestion by incubation at 37° C. for 10 minutes in dissection medium (1×HBSS/10 mM HEPES/1 mM Sodium Pyruvate) supplemented with (0.25%) Trypsin and (0.1%) DNase I. Digested tissue is washed and resuspended in plating medium (NeuroBasal/10% HS/0.5 mM L-Glutamine (Invitrogen Corporation)) for trituration. Additional plating medium is added, and the contents are passed over a 70 um cell-strainer. The cell-density is quantified using a hemacytometer, and dilutions are made to allow for the plating of 50000 cells/well/100 uL in 96-well PDL-coated plates. Plates are incubated for 4-5 hours in 37° C./5% CO2-incubator, after which time the entire volume is exchanged to feeding medium (NeuroBasal/2% B-27 Serum-free supplement/0.5 mM L-Glutamine/1% Penicillin-Streptomycin (Invitrogen Corporation)). The cultures undergo two 50% fresh feeding medium exchanges at 3 days in vitro (DIV3), and again at DIV7.
Compounds for testing are resuspended in dimethyl sulphoxide (DMSO), and further diluted in DMSO for a ten-point dose-response curve, with appropriate controls. Each master plate is assayed in triplicate. […] Three DIV9 culture plates are leveled to 50 uL/well, onto which each has overlaid 50 uL/well of the diluted daughter plate. The plates are returned to the 37° C./5% CO2-incubator for 16-18 hours.
The next step of the assay involves the exposure of a HDAC colorimetric substrate, comprising an acetylated lysine side chain, to the compound-treated neuronal cultures. Based on the ability of the compound to inhibit HDAC activity in the neuronal cultures, the substrate is deacetylated by HDACs, and subsequently sensitized. […] Compound-incubated culture plates are again leveled to 50 uL/well and 2 uL/well of 7.5 mM BOC-Lys (Ac)-AMC substrate is added and thoroughly mixed. Plates are returned to the 37° C./5% CO2-incubator for 1 hour.
The final addition to the culture plates entails treatment with a Fluor de Lys™-based developer (BIOMOL Research Laboratories, Inc.) to produce a fluorophore, which is analyzed using a spectrophotometer. The developer solution (1×Fluor de Lys™/1% NP-40/1 uM TSA in HDAC Buffer Solution) is prepared, and 50 uL/well is added to each of the wells of the culture plates. […] The plates are returned to the 37° C./5% CO2-incubator for 10-15 minutes, after which time, they are removed and set in the dark at room temperature for 5-10 minutes.
Primary neocortical cultures were established through the dissection of the neocortex from E17 embryos harvested from time-pregnant Balb/C mice. Following dissection, the neocortical tissue specimens underwent digestion by incubation at 37° C. for 10 minutes in dissection medium (1×HBSS/10 mM HEPES/1 mM Sodium Pyruvate) supplemented with (0.25%) Trypsin and (0.1%) DNase I. Digested tissue was washed and resuspended in plating medium (NeuroBasal/10% HS/0.5 mM L-Glutamine (Invitrogen Corporation)) for trituration. Additional plating medium was added, and the contents passed over a 70 um cell-strainer. The cell-density was quantified using a hemacytometer, and dilutions made to allow for the plating of 50000 cells/well/100 uL in 96-well PDL-coated plates. Plates were incubated for 4-5 hours in 37° C./5% CO2-incubator, after which time the entire volume was exchanged to feeding medium (NeuroBasal/2% B-27 Serum-free supplement/0.5 mM L-Glutamine/l % Penicillin-Streptomycin (Invitrogen Corporation)). The cultures underwent two 50% fresh feeding medium exchanges at 3 days in vitro (DIV3), and again at DIV7.
Compounds for testing were resuspended in dimethyl sulphoxide (DMSO), and further diluted in DMSO for a ten-point dose-response curve, with appropriate controls. Each master plate was assayed in triplicate.

In test [2] the target is one or more of HDAC-1, HDAC-2, HDAC-3, HDAC-4, HDAC-5, HDAC-6, HDAC-7, HDAC-8, HDAC-9, HDAC-10 and HDAC-11. The experiment in a line: Inhibition of Histone Deacetylase Enzymatic Activity (Boc-Lys(Ac)-AMC substrate, Fluor-de-Lys developer). It is filed as biochemical. The following applies: read-out: HDAC Inhibition (IC50 μM) HDAC Enzyme. The protocol:
The following protocol is used to assay the compounds of the disclosure.
The mixture is pre-incubated for 5 minutes at room temperature. The reaction is started by bringing the temperature to 37° C. and adding 16 μl substrate. Total reaction volume is 50 μl.
In the Tables 8, 9 and 10, A≦0.05 μM; 0.05 μM<B≦0.1 μM; 0.1 μM<C≦1 μM; and 1 μM<D≦10 μM.

Like-named read-outs stand apart in the source and are kept apart here.

`O=C(NO)c1cnc(NC2c3ccccc3-c3ccccc32)nc1` [2-(9H-fluoren-9-ylamino)-N-hydroxypyrimidine-5-carboxamide]: the IC50 (commonly the concentration at which inhibition is half-maximal) is 5 to 15 µM in test [1] (Table 10) and 0.1 to 1 µM in test [2] (Table 10).

As for `O=C(NO)c1cnc(N2C[C@@H]3C[C@H]2CN3)nc1` [2-((1S,4S)-2,5-diazabicyclo[2.2.1]heptan-2-yl)-N-hydroxypyrimidine-5-carboxamide], the values for the IC50 in test [1] (Table 9) and in test [2] (Table 9) were 5 to 15 µM and 0.1 to 1 µM, respectively.

Turning to `O=C(NO)c1cnc(N2C[C@@H]3C[C@H]2CN3c2ccc3c(c2)OC(F)(F)O3)nc1` [2-((1S,4S)-5-(2,2-difluorobenzo[d][1,3]dioxol-5-yl)-2,5-diazabicyclo[2.2.1]heptan-2-yl)-N-hydroxypyrimidine-5-carboxamide], the IC50 is 1 to 5 µM in test [1] (Table 9) and < 0.05 µM in test [2] (Table 9).

Consider `O=C(NO)c1cnc(N2C[C@@H]3C[C@H]2CN3C(=O)C(c2ccccc2)c2ccccc2)nc1` [2-((1S,4S)-5-(2,2-diphenylacetyl)-2,5-diazabicyclo[2.2.1]heptan-2-yl)-N-hydroxypyrimidine-5-carboxamide], for which the half-maximal inhibitory concentration (IC50) in test [1] (Table 9) fell in the range of 1 to 5 µM; in test [2] (Table 9) it was 0.05 to 0.1 µM.

As to `O=C(NO)c1cnc(N2C[C@@H]3C[C@H]2CN3c2ccc(C(F)(F)F)cc2F)nc1` [2-((1S,4S)-5-(2-fluoro-4-(trifluoromethyl)phenyl)-2,5-diazabicyclo[2.2.1]heptan-2-yl)-N-hydroxypyrimidine-5-carboxamide], the IC50 is 1 to 5 µM in test [1] (Table 9) and < 0.05 µM in test [2] (Table 9).

Consider `O=C(NO)c1cnc(N2C[C@@H]3C[C@H]2CN3c2cc(C(F)(F)F)cc(C(F)(F)F)c2)nc1` [2-((1S,4S)-5-(3,5-bis(trifluoromethyl)phenyl)-2,5-diazabicyclo[2.2.1]heptan-2-yl)-N-hydroxypyrimidine-5-carboxamide], for which the IC50 is 1 to 5 µM in test [1] (Table 9) and < 0.05 µM in test [2] (Table 9).

With `CN(C)Cc1cccc(N2C[C@@H]3C[C@H]2CN3c2ncc(C(=O)NO)cn2)c1` [2-((1S,4S)-5-(3-((dimethylamino)methyl)phenyl)-2,5-diazabicyclo[2.2.1]heptan-2-yl)-N-hydroxypyrimidine-5-carboxamide], the half-maximal inhibitory concentration (IC50) was < 1 µM in test [1] (Table 9) and < 0.05 µM in test [2] (Table 9).

As to `O=C(NO)c1cnc(N2C[C@@H]3C[C@H]2CN3c2cccc(OC(F)F)c2)nc1` [2-((1S,4S)-5-(3-(difluoromethoxy)phenyl)-2,5-diazabicyclo[2.2.1]heptan-2-yl)-N-hydroxypyrimidine-5-carboxamide], the results for the IC50 in test [1] (Table 9) and in test [2] (Table 9) were < 1 µM and < 0.05 µM, respectively.

Turning to `CN(C)C(=O)c1cccc(N2C[C@@H]3C[C@H]2CN3c2ncc(C(=O)NO)cn2)c1` [2-((1S,4S)-5-(3-(dimethylcarbamoyl)phenyl)-2,5-diazabicyclo[2.2.1]heptan-2-yl)-N-hydroxypyrimidine-5-carboxamide], the figures for the IC50 in test [1] (Table 9) and in test [2] (Table 9) were < 1 µM and < 0.05 µM, respectively.

Regarding `O=C(NO)c1cnc(N2C[C@@H]3C[C@H]2CN3c2cccc(F)c2)nc1` [2-((1S,4S)-5-(3-fluorophenyl)-2,5-diazabicyclo[2.2.1]heptan-2-yl)-N-hydroxypyrimidine-5-carboxamide], the half-inhibitory concentration (IC50) in test [1] (Table 9) is < 1 µM; in test [2] (Table 9), < 0.05 µM.

Consider `O=C(NO)c1cnc(N2C[C@@H]3C[C@H]2CN3c2ccc(Cl)cc2)nc1` [2-((1S,4S)-5-(4-chlorophenyl)-2,5-diazabicyclo[2.2.1]heptan-2-yl)-N-hydroxypyrimidine-5-carboxamide], for which the IC50 in test [1] (Table 9) is < 1 µM; in test [2] (Table 9), < 0.05 µM.

Consider `O=C(NO)c1cnc(N2C[C@@H]3C[C@H]2CN3c2ccc(F)cc2)nc1` [2-((1S,4S)-5-(4-fluorophenyl)-2,5-diazabicyclo[2.2.1]heptan-2-yl)-N-hydroxypyrimidine-5-carboxamide], for which the values for the IC50 in test [1] (Table 9) and in test [2] (Table 9) were < 1 µM and 0.05 to 0.1 µM, respectively.

Consider `O=C(NO)c1cnc(N2C[C@@H]3C[C@H]2CN3c2cccc3nonc23)nc1` [2-((1S,4S)-5-(benzo[c][1,2,5]oxadiazol-4-yl)-2,5-diazabicyclo[2.2.1]heptan-2-yl)-N-hydroxypyrimidine-5-carboxamide], for which the half-maximal inhibitory concentration (IC50) in test [1] (Table 9) is < 1 µM; in test [2] (Table 9), < 0.05 µM.

`O=C(NO)c1cnc(N2C[C@@H]3C[C@H]2CN3c2ccc3nonc3c2)nc1` [2-((1S,4S)-5-(benzo[c][1,2,5]oxadiazol-5-yl)-2,5-diazabicyclo[2.2.1]heptan-2-yl)-N-hydroxypyrimidine-5-carboxamide]: the IC50 in test [1] (Table 9) was < 1 µM; in test [2] (Table 9), < 0.05 µM.

With `O=C(NO)c1cnc(N2C[C@@H]3C[C@H]2CN3c2ccc3nsnc3c2)nc1` [2-((1S,4S)-5-(benzo[c][1,2,5]thiadiazol-5-yl)-2,5-diazabicyclo[2.2.1]heptan-2-yl)-N-hydroxypyrimidine-5-carboxamide], the IC50 in test [1] (Table 9) was < 1 µM; in test [2] (Table 9), < 0.05 µM.

As for `O=C(NO)c1cnc(N2C[C@@H]3C[C@H]2CN3c2ccc3c(c2)OCO3)nc1` [2-((1S,4S)-5-(benzo[d][1,3]dioxol-5-yl)-2,5-diazabicyclo[2.2.1]heptan-2-yl)-N-hydroxypyrimidine-5-carboxamide], the IC50 in test [1] (Table 9) was < 1 µM; in test [2] (Table 9), < 0.05 µM.

For the molecule `O=C(NO)c1cnc(N2C[C@@H]3C[C@H]2CN3c2noc3ccccc23)nc1` [2-((1S,4S)-5-(benzo[d]isoxazol-3-yl)-2,5-diazabicyclo[2.2.1]heptan-2-yl)-N-hydroxypyrimidine-5-carboxamide], the IC50 is < 1 µM in test [1] (Table 9) and < 0.05 µM in test [2] (Table 9).

On to `O=C(NO)c1cnc(N2C[C@@H]3C[C@H]2CN3C(c2ccccc2)c2ccccc2)nc1` [2-((1S,4S)-5-benzhydryl-2,5-diazabicyclo[2.2.1]heptan-2-yl)-N-hydroxypyrimidine-5-carboxamide], for which the IC50 in test [1] (Table 9) is 1 to 5 µM; in test [2] (Table 9) it was < 0.05 µM.

`O=C(NO)c1cnc(N2C[C@@H]3C[C@H]2CN3C(=O)c2ccccc2)nc1` [2-((1S,4S)-5-benzoyl-2,5-diazabicyclo[2.2.1]heptan-2-yl)-N-hydroxypyrimidine-5-carboxamide]: the figures for the IC50 in test [1] (Table 9) and in test [2] (Table 9) were < 1 µM and < 0.05 µM, respectively.

As to `O=C(NO)c1cnc(N2C[C@@H]3C[C@H]2CN3Cc2ccccc2)nc1` [2-((1S,4S)-5-benzyl-2,5-diazabicyclo[2.2.1]heptan-2-yl)-N-hydroxypyrimidine-5-carboxamide], the values for the IC50 in test [1] (Table 9) and in test [2] (Table 9) were 1 to 5 µM and 0.1 to 1 µM, respectively.

On to `O=C(NO)c1cnc(NC(c2ccccc2)c2ccccc2)nc1` [2-(benzhydrylamino)-N-hydroxypyrimidine-5-carboxamide], for which the values for the IC50 in test [1] (Table 10) and in test [2] (Table 10) were < 1 µM and < 0.05 µM, respectively.

For the molecule `O=C(NO)c1cnc(OC(c2ccc(F)cc2)c2ccc(F)cc2)nc1` [2-(bis(4-fluorophenyl)methoxy)-N-hydroxypyrimidine-5-carboxamide], the figures for the IC50 in test [1] (Table 10) and in test [2] (Table 10) were > 15 µM and 0.1 to 1 µM, respectively.

Regarding `O=C(NO)c1cnc(ON=C(c2ccccc2)c2ccccc2)nc1` [2-(diphenylmethyleneaminooxy)-N-hydroxypyrimidine-5-carboxamide], the figures for the IC50 in test [1] (Table 10) and in test [2] (Table 10) were 5 to 15 µM and 1 to 10 µM, respectively.
